Test results taken from patent US20260240819A1, “KAT6 INHIBITOR METHODS AND COMBINATIONS FOR CANCER TREATMENT” (Pfizer Inc., priority 2020, published 2026).
Several values for one entry are separate records, joined by “and”; a condition that tells them apart may be missing. Equal entries are not always repeated.

How the values were obtained:
[1] = tested on: T47D cells; assay: Palbociclib recovery colony formation assay (SRB stain); assay type: cell-based; conditions: Homo sapiens, read-out: KAT6 inhibitor concentration giving 50% inhibition of recovery, with 500 nM palbociclib 14 days, then 14 days recovery
Method: (§1) T47D, ZR-75-1, or MCF7 cells were seeded into 6-well tissue culture plates at 10% seeding confluence (100,000-150,000 cells per well). After allowing 18-24 hours for the cells to attach to the wells, growth media was aspirated and discarded and new growth media containing 0-20 μM of either COMPOUND A or COMPOUND B was added in 2-fold increments of descending concentration from 20 μM to the cells (proliferation assay). In parallel, seeded cultures with the same titration of the KAT6 inhibitors was added to the cells. 500 nM palbociclib was also added for each concentration of the KAT6 inhibitors (palbociclib recovery assay). The cultures were incubated 12-14 days and treated with these inhibitors/inhibitor combinations. Growth media containing the inhibitors was replaced on the cell cultures every 3-4 days (twice per week).
For the T47D cultures arrested with 500 nM palbociclib and treated with increasing concentration of the KAT6 inhibitors (palbociclib recovery assay), after 14 days of combination treatment the growth media containing the inhibitors was aspirated from the cultures and discarded. […] After allowing 14 days for the cultures to recover, those that recovered from single agent 500 nM palbociclib arrest were >90% confluent and all the palbociclib recovery cultures were SRB stained, scanned, and destained/measured as described above. […]

[2] = tested on: ZR-75-1 cells; assay: as above; assay type: cell-based; conditions: Homo sapiens, read-out: Concentration giving 50% inhibition of recovery; ZR-75-1, with 500 nM palbociclib 14 days, then 22 days recovery
Method: as §1
(§2) For the ZR-75-1 and MCF7 experiments, only COMPOUND A was tested. For the single agent treated ZR-75-1 cultures the vehicle treated cultures were >90% confluent after 12 days of treatment. These cultures were SRB stained, scanned, and destained/measured as described above. […] After 22 days of recovery, the ZR-75-1 cultures that had been treated with single agent 500 nM palbociclib were >90% confluent and these palbociclib recovery assay cultures were SRB stained, scanned, and destained/measured as described above.

[3] = tested on: ESR1 (encoding estrogen receptor alpha (ERα)) expression in T47D cells; assay: GeneChip gene expression analysis; assay type: cell-based; conditions: 10 μM, 6 days
Method: T47D cell lines having either the Tet-ON KAT6A_5, KAT6A_6, or shRenilla shRNAs were treated with 0.2 μg/mL doxycycline to induce expression of the respective shRNA in the T47D cells and initiate knockdown of KAT6A (KAT6A_5 and KAT6A_6 cells only). The cells were treated with doxycycline for 4 days, which provided suffient time for KAT6A protein depletion in the cells. On day 3 of doxycycline treatment, the KAT6A_5, KAT6A_6, and shRenilla T47D cells were suspended and seeded into 6-well tissue cultures plates at 10% confluence. Parental T47D cells (no shRNA) were also seeded into 6-well tissue culture plates at 10% confluence. On day 4 after shRNA induction, half the T47D KAT6A_5, KAT6A_6, and shRenilla cultures were treated with 0.5 μM palbociclib and half the cultures were kept untreated. All cultures were kept in growth media containing 0.2 μg/mL doxycycline to maintain KAT6A knockdown in the cells throughout the experiment. The parental T47D cells were split into four groups as follows: (1) vehicle treated (DMSO), (2) vehicle+0.5 μM palbociclib, (3) 10 μM COMPOUND A treated, and (4) 10 μM COMPOUND A+0.5 μM palbociclib. The parental T47D and T47D-shRNA cell lines were subsequently treated for 6 days and the growth media, containing the inhibitors represented the different growth conditions described above, was replaced once on day 3 of treatment. […]

[4] = tested on: T47D cells; assay: Proliferation colony formation assay (SRB stain); assay type: cell-based; conditions: Homo sapiens, 288 h, single agent, 12 days, read-out: Concentration giving 50% proliferation inhibition
Method: as §1
For the KAT6 inhibitor treated T47D cultures (proliferation assay), after 12 days the vehicle (DMSO) treated cultures were >90% confluent and the cell cultures were SRB stained as described in Example 3. The stained 6-well plates were scanned using an Epson Perfection V600 Photo Scanner and Epson Scan version 3.9.2.0 software. To quantitate SRB staining in each 6-well culture, the cultures were destained with 2 mL 10 mM Tris pH 7.5 per well and the absorbance at 565 nm (O.D. 565) of the released stain was measured using a SpectraMax Plus plate reader and SoftMaxPro 5.4.3 software. Inhibition of T47D cell proliferation by both COMPOUND A and COMPOUND B were equivalent with 50% proliferation inhibition observed with 10 μM of the KAT6 inhibitors (FIGS. 8A and 8C).
Cells were plated at low density into 6-well culture dishes and allowed to attach overnight at 37° C., 5% CO2. The next day, in parallel to the proliferation set, palbociclib was added at a final concentration of […] to another set of plates, which served as the set for palbociclib recovery. To both proliferation and palbociclib recovery plates, DMSO or KAT6 inhibitor was added into each well at increasing doses. Medium and KAT6 inhibitor were refreshed twice a week. Cells were cultured for about two weeks of drug treatment until the DMSO-treated wells reached confluency. At the end of treatment, cells were washed once with phosphate-buffered saline and were fixed and stained with SRB for visualization followed by quantification. […] Wells were fixed and stained with SRB for visualization followed by quantification. To quantify the stain, stained cells were dissolved in 2 mL of 10 mM Tris-HCl, pH 7.5 and shaken for 10 min on a shaker. Samples were then diluted with 10 mM Tris-HCl, pH 7.5, transferred to a 96-well microtiter plate in a volume of 100 μL and read on SpetraMax at 565 nm.

[5] = tested on: MCF7 cells; assay: Palbociclib recovery colony formation assay (SRB stain); assay type: cell-based; conditions: Homo sapiens, read-out: Concentration giving 50% inhibition of recovery; MCF7, with 500 nM palbociclib 14 days, then 10 days recovery
Method: as §1
(§3) The MCF7 cells were tested with COMPOUND A. For the single agent treated MCF7 cultures, the vehicle treated cultures were >90% confluent after 10 days of treatment. These cultures were SRB stained, scanned, and destained/measured as described above. […] After 10 days of recovery, the MCF7 cultures that had been treated with single agent 500 nM palbociclib were >90% confluent and these palbociclib recovery assay cultures were SRB stained, scanned, and destained/measured as described above.

[6] = tested on: MCF7 cells; assay: Proliferation colony formation assay (SRB stain); assay type: cell-based; conditions: Homo sapiens, 240 h, read-out: Concentration giving 50% inhibition of proliferation; MCF7, single agent, 10 days
Method: as §1, §3

[7] = tested on: ZR-75-1 cells; assay: Proliferation colony formation assay (SRB stain); assay type: cell-based; conditions: Homo sapiens, 288 h, read-out: Concentration giving 50% inhibition of proliferation; ZR-75-1, single agent, 12 days
Method: as §1, §2
Cells were plated at low density into 6-well culture dishes and allowed to attach overnight at 37° C., 5% CO2. […] At the end of treatment, cells were washed once with phosphate-buffered saline and were fixed and stained with SRB for visualization followed by quantification. […] Wells were fixed and stained with SRB for visualization followed by quantification. To quantify the stain, stained cells were dissolved in 2 mL of 10 mM Tris-HCl, pH 7.5 and shaken for 10 min on a shaker. Samples were then diluted with 10 mM Tris-HCl, pH 7.5, transferred to a 96-well microtiter plate in a volume of 100 μL and read on SpetraMax at 565 nm.

[8] = Bodyweight and health monitoring, PDX ST941 study; assay type: in vivo, female athymic nude mice; conditions: relative to day 0
Method: (§4) Combination studies with palbociclib, fulvestrant and the KAT6 inhibitor, Compound E (KAT6i), were performed in two ER+ breast cancer PDX models: ST340 and ST941. ST340 was wildtype for ESR1. […] Both studies were conducted by XenoSTART (San Antonio, Texas), where 6-12 week-old female athymic nude mice (JAX, stock #007850) were subcutaneously implanted with ~70 mg tumor fragments. Animals were supplemented with exogenous estradiol ad libitum via drinking water throughout the duration of the studies. Tumor measurements and animal weights were captured twice per week, and animals were stratified and enrolled into the study when the mean tumor volume (TV, formula: width^2×length×0.5) reached 150-300 mm^3.
(§5) Each study contained eight treatment groups of n=10 animals per group. The groups were as follows: 1) Vehicle (5% DMSO/40% PEG300/55% 1×PBS), 2) Compound E, 3) palbociclib, 4) fulvestrant, 5) palbociclib+fulvestrant, 6) Compound E +fulvestrant, 7) Compound E+palbociclib, and 8) Compound E+palbociclib+fulvestrant. Animals remained on study and were continued on treatments until the mean tumor volume of each group reached ~1500 mm^3. At that point, the final dose was administered, animals were sacrificed, and terminal samples were collected. Blood microsamples were collected from each group for pharmacokinetics (PK) analysis at 0, 3, and 7 hrs (n=3/timepoint) on day 14 of dosing and again on the terminal day of dosing.
(§6) Analysis of covariance (ANCOVA) was used to determine statistical significance when comparing percent TGI between groups. Changes in bodyweights were calculated in relation to starting bodyweights at study initiation (day 0 of treatment).

[9] = tested on: ER+ breast cancer PDX model ST340; assay: PDX tumor growth inhibition study; assay type: in vivo, female athymic nude mice; conditions: doses per Table 7; for % TGI Delta: PDX ST340, day 21, compared to Vehicle; for Mean ± SEM (day 21): PDX ST340, tumor volume (mm^3)
Method: as §4, §5, §6

[10] = Bodyweight and health monitoring, PDX ST340 study; assay type: in vivo, female athymic nude mice; conditions: relative to day 0
Method: as §4, §5, §6

Cc1cc(-c2ccccc2)cc(C(=O)NNS(=O)(=O)c2ccccc2)c1F [COMPOUND A, N′-(4-fluoro-5-methyl-[1,1′-biphenyl]-3-carbonyl)benzenesulfonohydrazide]
IC50 [1]: 5 µM
IC50 [2]: 2.5 µM
ESR1 expression and downstream ERα regulated genes [3]: significant downregulation
IC50 [4]: 10 µM
IC50 [5]: 5 µM
IC50 [6]: > 20 µM
IC50 [7]: 0.3 µM

O=C(NNS(=O)(=O)c1ccccc1)c1cc(-c2ccccc2)cc(Cl)c1F [COMPOUND B, N′-(5-chloro-4-fluoro-[1,1′-biphenyl]-3-carbonyl)benzenesulfonohydrazide]
IC50 [1]: 2.5 µM
IC50 [4]: 10 µM

COc1ccccc1S(=O)(=O)Nc1noc2cc(Cn3cccn3)cc(OC)c12 [Compound E, 2-methoxy-N-{4-methoxy-6-[(1H-pyrazol-1-yl)methyl]-1,2-benzoxazol-3-yl}benzene-1-sulfonamide]
Day 17 mean change in bodyweight [8]: +5%
Maximum mean bodyweight loss [8]: −4%
% TGI Delta [9]: 55% and 55.4%
Mean ± SEM (day 21) [9]: 882 ± 86
Day 21 mean change in bodyweight [10]: −2%
Maximum mean bodyweight loss [10]: −4%

C[C@]12CC[C@@H]3c4ccc(O)cc4C[C@@H](CCCCCCCCC[S+]([O-])CCCC(F)(F)C(F)(F)F)[C@H]3[C@@H]1CC[C@@H]2O (stereo partly shown) [Fulvestrant]
Day 17 mean change in bodyweight [8]: 0%
Maximum mean bodyweight loss [8]: −5%
% TGI Delta [9]: 21.3%
% TGI Delta ([9]; listed as fulvestrant): ~ 20%
Mean ± SEM (day 21) [9]: 1370 ± 195
Day 21 mean change in bodyweight [10]: +5%
Maximum mean bodyweight loss [10]: −2%
